Data as given in US10407432B2, “[1,2,4]triazolo[4,3-B]pyridazines for use in the treatment of proliferative diseases” (AstraZeneca AB, priority 2014, dated 2019).

How the values were obtained:
BRD2 (2) = molecular target: T1, BRD2 (2) (Homo sapiens, UniProt P25440); test: BROMOscan assay (DiscoverX) BRD2(2); format: binding
T1 construct: purchased Discoverx (BROMOscan service)
Protocol: (§1) BROMOscan™ Assay (ex Discoverx)
(§2) The ability of the compounds to bind to a bromodomain protein was tested by Discoverx using their proprietory ligand binding site-directed competition assay. Supplied compounds were anonymised.
(§3) The BROMOscan assay is based on the principle that test compounds that bind the bromodomain protein prevent its binding to an immobilized ligand thus reducing the amount of protein captured on a solid support. […] Screening “hits” are identified by measuring the amount of bromodomain captured in test versus control samples by using a quantitative, precise and ultra-sensitive qPCR method that detects the associated DNA label. In a similar manner, dissociation constants (Kds) for test compound-bromodomain interactions are calculated by measuring the amount of bromodomain protein captured on the solid support as a function of the test compound concentration.

cMyc protein = test: Assay monitoring cMyc protein modulation in MM1.S cells (flow cytometry); format: cell-based; conditions: Homo sapiens, c-Myc protein level, 16 hours treatment, read-out: MM1.S “MoA” IC50/μM
Protocol: Assay Monitoring cMyc Protein Modulation
Multiple myeloma MM1.S cells were cultured in RPMI-1640 medium containing 10% FBS and 1% L-glutamine under standardized conditions in a humidified incubator (37° C. and 5% CO2). The impact of cMyc protein modulation induced by bromodomain inhibitors was assessed by staining and quantifying c-Myc protein level after compound treatment using a flow cytometer Assay, carried out in 96-well plate format with 200K cells per well. Cells were treated with serially diluted compounds 16 hours before fixing with 2% paraformaldehyde (final concentration) for 10 minutes at 37° C. After being permeablized by ice cold 90% methanol at 4° C. for 30 min, cells were washed, blocked by buffer (0.5% FBS in phosphate-buffered saline (PBS) buffer) for 10 minutes at room temperature, and stained with cMyc antibody for 1 hour (Cell Signaling Technology®5605, 1:200 dilution). Cells were washed and stained by incubating with Alexa-488 conjugated anti-Rabbit IgG (Cell Signaling Technology®#4412, 1:1000 dilution) at RT for 30 minutes. After staining, cells were washed again and fixed with 2% paraformaldehyde in PBS and ready for analysis by BD FACSCalibur™ flow cytometer. Fluorescence geometric mean was calculated through FlowJo (TreeStar Inc), maximal inhibition signal was determined by control compound treatment at high dose across each plate, and minimal inhibition signal was determined by DMSO treatment. IC50 was calculated by fitting the dose-response data points which are normalized against max and min signals as percentage of inhibition using a standard 4-Parameter-Logistic nonlinear regression model.

BRD4 (1) [1] = molecular target: T2, BRD4 (1) (Homo sapiens, UniProt O60885); test: BROMOscan assay (DiscoverX) BRD4(1); format: binding; set-up: purchased Discoverx (BROMOscan service)
Protocol: as §1, §2, §3

BRDT (2) = molecular target: T3, BRDT (2) (Homo sapiens, UniProt Q58F21); test: BROMOscan assay (DiscoverX) BRDT(2); format: binding
T3 construct: purchased Discoverx (BROMOscan service)
Protocol: as §1, §2, §3

BRD2 (1) = molecular target: T4, BRD2 (1) (Homo sapiens, UniProt P25440); test: BROMOscan assay (DiscoverX) BRD2(1); format: binding
T4 construct: purchased Discoverx (BROMOscan service)
Protocol: as §1, §2, §3

MM1.S cells = test: Anti-proliferative assay (AlamarBlue) in MM1.S cells; format: cell-based; conditions: Homo sapiens, 72 h, 3 days of culture, read-out: MM1.S Antiproliferative GI50/μM
Protocol: Anti-proliferative assay The anti-proliferative effect of the compounds was assessed by AlamarBlue assay in MM1.S cells which were originally derived from a multiple myeloma patient. This assay is based on Resazurin, a non-fluorescent indicator dye converted to bright red-fluorescent resorufin via the reduction reactions of metabolically active cells. The amount of fluorescence produced is proportional to the number of living cells. MM.1S cells are cultured in RPMI-1640 medium (Gibco®) plus 10% Fetal bovine serum (FBS) and 1 mM L-glutamine. 12-24 hours before compound dosing, 90 μL of cell suspension (18,750 cells) was seeded into 96-well microtiter plates (black, flat bottom). On the day of compound dosing, compounds were serially diluted 1:3 in 100% DMSO using columns 2-10 of a 96-well microtiter plate. Column 11 of compound serial plate contained only DMSO. All wells were then further diluted 1:30 in media. 10 μL of compound or DMSO alone in media was added to cell plates columns 2-11 in triplicate. In addition, 1 plate had 10 μL of media added and was developed using alamar blue. Plates developed on the day of compound addition were referred to as Day 0. Dosed plates were cultured 3 days under normal conditions (RPMI-1640 plus 10% FBS and 1 mM L-glutamine) After 3 days of culture, dosed plates are developed using either MTS or alamar blue. For each compound concentration, % net growth was calculated by
(Day 3 dosed well-Average Day 0)/(Average Day 3 DMSO control-Average Day 0). The GI50, the concentration that causes 50% of growth inhibition, of each compound was calculated using the % net growth as defined by National Cancer Institute (NCI).

BRD4 (1) [2] = molecular target: T2, BRD4 (1); test: Alpha-Screen assay, BRD4 BD1; format: binding; set-up: 6His-TEV-BRD4, amino acid residues 42-169, corresponding to the BD1 domain; conditions: 6His-TEV-BRD4 residues 42-169 (BD1), H4K5,8,12,16(Ac)4-biotin peptide
Protocol: The ability of the compounds to bind to a bromodomain protein was tested in an AlphaScreen® assay. The assay is based on the interaction between Histidine-tagged bromodomain protein which can bind to Nickel-chelate donor beads, and a Biotinylated acetyl lysine peptide corresponding to a histone amino acid sequence, which can bind to streptavidin-conjugated acceptor beads. The protein-peptide interaction can be detected by light emission at 520-620 nm. In the presence of compounds which bind to BRD4 a lower signal is observed as the protein-peptide interaction is reduced. • 1. The assay was performed as follows: —Greiner BioOne (cat no. 784075) compound plates were used. Compounds were prepared using the Labcyte Echo Acoustic Dispenser with compounds in a final volume of 40 nl per well normalised to 0.5% (v/v) DMSO under final assay conditions. Compounds were tested in 12 point singlicate concentration response format. • 2. 4 μl of BRD4 protein (6His-TEV-BRD4, amino acid residues 42-169, corresponding to the BD1 domain) (final assay concentration=50 nM) per well was added using the Beckman Coulter BioRAPTR® Flying Reagent Dispensor Microfluidic Workstation. • 3. Incubated for 30 minutes at room temperature. • 4. Added 4 μl of acetyl lysine peptide (H4K5,8,12,16(Ac)4-biotin:(NH2-) YSGRG(K-Ac)GG(K-Ac)GLG(K-Ac)GGA(K-Ac)RHR(K-Biotin)(—COOH)) (final assay concentration=50 nM) per well using the Beckman Coulter BioRAPTR® Flying Reagent Dispensor Microfluidic Workstation. • 5. Incubated for 30 minutes at room temperature. • 6. Added 4 μl of Nickel & Streptavidin-bead solution pre-mixed (beads supplied by Perkin Elmer) per well using the BioRaptr as before (final assay concentration=4 μg/ml). Kept plates in the dark after addition. • 7. Incubated for 60 minutes at room temperature keeping the assay plate in the dark • 8. Plates were then read using the Perkin Elmer Envision plate reader, laser excitation at 680 nm and emission detected at 520-620 nm. • 9. Data was analysed using Genedata software and IC50 values calculated.

BRD3 (2) = molecular target: T5, BRD3 (2) (Homo sapiens, UniProt Q15059); test: BROMOscan assay (DiscoverX) BRD3(2); format: binding
T5 construct: purchased Discoverx (BROMOscan service)
Protocol: as §1, §2, §3

BRDT (1) = molecular target: T6, BRDT (1) (Homo sapiens, UniProt Q58F21); test: BROMOscan assay (DiscoverX) BRDT(1); format: binding
T6 construct: purchased Discoverx (BROMOscan service)
Protocol: as §1, §2, §3

BRD3 (1) = molecular target: T7, BRD3 (1) (Homo sapiens, UniProt Q15059); test: BROMOscan assay (DiscoverX) BRD3(1); format: binding
T7 construct: purchased Discoverx (BROMOscan service)
Protocol: as §1, §2, §3

BRD4 (2) = molecular target: T8, BRD4 (2) (Homo sapiens, UniProt O60885); test: BROMOscan assay (DiscoverX) BRD4(2); format: binding
T8 construct: purchased Discoverx (BROMOscan service)
Protocol: as §1, §2, §3

MV-4-11 cells = test: MV-4-11 xenograft model; format: in vivo, mouse; conditions: CB17 SCID mice, 10 mg/kg PO qd for 21 days, FIG. 5
Protocol: Compound A was also investigated in a xenograft model as described below.
Female CB17 SCID mice aged 6 to 8 weeks were obtained from Charles River Laboratories (Wilmington, Mass.) and maintained under specific-pathogen-free conditions in an AAALAC (Association for Assessment and Accreditation of Laboratory Animal Care)—accredited facility. Irradiated food and autoclaved water were provided ad libitum.
MV-4-11 cells ([…]) were resuspended in 0.1 ml of medium without serum and Matrigel (Becton Dickinson) at a 1:1 ratio. Cells (10^7/mouse) were injected subcutaneouly into the right flank of mice. Tumors were allowed to grow until they reached an average volume of 200 mm^3 for efficacy and then the mice were randomized into groups of 8. Compound A was solubilized in 0.5% HPMC/0.1% Tween80 for dosing. For efficacy, either vehicle or Compound A was administered PO once a day (qd) for 21 days at 10 mg/kg (mpk). Body weight and tumour volume were measured twice a week for 21 days.

[3] = Stability under temperature and humidity conditions; format: physicochemical; conditions: exposed to range of temperature and humidity conditions
[4] = Hygroscopicity of co-crystal versus free base; format: physicochemical

T4 sequence (P25440 74-180 limits assumed): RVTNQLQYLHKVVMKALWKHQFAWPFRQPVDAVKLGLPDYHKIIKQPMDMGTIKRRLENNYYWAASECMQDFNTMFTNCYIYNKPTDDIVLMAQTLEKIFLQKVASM
T1 sequence (P25440 344-453 limits assumed): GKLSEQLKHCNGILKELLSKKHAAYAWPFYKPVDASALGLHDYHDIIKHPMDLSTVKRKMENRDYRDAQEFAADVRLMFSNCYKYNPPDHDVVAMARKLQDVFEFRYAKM
T7 sequence (Q15059 34-140 limits assumed): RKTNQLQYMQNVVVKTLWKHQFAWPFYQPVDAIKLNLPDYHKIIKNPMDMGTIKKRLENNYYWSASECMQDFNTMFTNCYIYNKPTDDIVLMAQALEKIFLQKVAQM
T5 sequence (Q15059 306-415 limits assumed): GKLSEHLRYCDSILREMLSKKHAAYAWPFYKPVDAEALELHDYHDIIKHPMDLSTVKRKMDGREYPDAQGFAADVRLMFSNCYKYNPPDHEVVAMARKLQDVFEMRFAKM

SMILES	Kd (BRD2 (2))	IC50 (cMyc protein)	Kd (BRD4 (1) [1])	Kd (BRDT (2))	Kd (BRD2 (1))	GI50 (MM1.S cells)	IC50 (BRD4 (1) [2])	Kd (BRD3 (2))	Kd (BRDT (1))	Kd (BRD3 (1))	Kd (BRD4 (2))	pKa (pKa determination)	pKa (physchem)	Tumour growth inhibition (tumour volume) (MV-4-11 cells)	Stability compared to Compound A free base [3]	Hygroscopicity compared to Compound A free base [4]
COc1nnc2ccc(N3CCC(c4ccc(OCCCN5CCN(C)C(=O)[C@H]5C)cc4)CC3)nn12 [Example 3, (R)-4-(3-(4-(1-(3-methoxy-[1,2,4]triazolo[4,3-b]pyridazin-6-yl)piperidin-4-yl)phenoxy)propyl)-1,3-dimethylpiperazin-2-one]	0.53 µM	0.025 µM	0.11 µM	0.99 µM	0.16 µM	0.0075 µM	0.3 µM	0.67 µM	0.093 µM	0.11 µM	0.34 µM					
COc1nnc2ccc(N3CCC(c4ccc(OCCCN5[C@H](C)CN(C(C)=O)C[C@@H]5C)cc4)CC3)nn12 [Example 4, 1-((3R,5S)-4-(3-(4-(1-(3-methoxy-[1,2,4]triazolo[4,3-b]pyridazin-6-yl)piperidin-4-yl)phenoxy)propyl)-3,5-dimethylpiperazin-1-yl)ethanone]		0.012 µM	0.057 µM			0.0051 µM	0.14 µM				0.25 µM					
COc1nnc2ccc(N3CCC(c4ccc(OCCN5[C@H](C)CN(C(C)=O)C[C@@H]5C)cc4)CC3)nn12 [Example 2, 1-((3S,5R)-4-(2-(4-(1-(3-methoxy-[1,2,4]triazolo[4,3-b]pyridazin-6-yl)piperidin-4-yl)phenoxy)ethyl)-3,5-dimethylpiperazin-1-yl)ethanone]	0.35 µM	< 0.002 µM	0.026 µM	1.1 µM	0.083 µM	< 0.002 µM	0.035 µM	0.92 µM	0.035 µM	0.057 µM	0.29 µM					
O=C(O)c1ccc2cc(O)ccc2c1 [6-hydroxy-2-naphthoic acid]												4.3				
COc1nnc2ccc(N3CCC(c4ccc(OCCN5CCN(C)C(=O)[C@H]5C)cc4)CC3)nn12 [Example 1, (R)-4-(2-(4-(1-(3-methoxy-[1,2,4]triazolo[4,3-b]pyridazin-6-yl)piperidin-4-yl)phenoxy)ethyl)-1,3-dimethylpiperazin-2-one]	0.28 µM	0.011 µM	0.047 µM	0.45 µM	0.1 µM	0.0049 µM	0.12 µM	0.43 µM	0.095 µM	0.064 µM	0.13 µM		< 1	Tumour Growth Inhibition		
COc1nnc2ccc(N3CCC(c4ccc(OCCN5CCN(C)C(=O)[C@H]5C)cc4)CC3)nn12.O=C(O)c1ccc2cc(O)ccc2c1 [(R)-4-(2-(4-(1-(3-methoxy-[1,2,4]triazolo[4,3-b]pyridazin-6-yl)piperidin-4-yl)phenoxy)ethyl)-1,3-dimethylpiperazin-2-one:6-hydroxy-2-naphthoic acid (1:1) co-crystal]															more stable than Compound A free base	significantly less hydroscopic than Compound A free base
